Measured values as given in a melting point compilation (Tetko et al.; mined from patent text by program, amines drawn as free bases though some values may be those of a salt).

SMILES	melting point [°C]
O=C1Nc2ccccc2N(C(=O)CN2CCCC(CN3CCCCC3)C2)c2ccccc21 (centres undefined)	150 to 152
Cn1c(C(F)(F)F)cc(=O)n(-c2ccc(Cl)c3nc(C(C)(C)C)oc23)c1=O	146 to 148
CCn1cc(C(=O)NCc2ccc(Cl)cc2)c(=O)c2cc(CCCCO)sc21	136 to 139
CCS(=O)c1cn(C)cc(-c2cccc(C(F)(F)F)c2)c1=O (centres undefined)	146 to 148
O=C(Nc1ccccc1F)c1ccccc1CN1C(=O)C2(COc3cc4c(cc32)CCO4)c2ccccc21 (centres undefined)	195 to 197
CC(O)CNc1ccc(NC(=O)n2ccc3cc(Oc4cc(CC(N)=O)ncn4)ccc32)cc1C(F)(F)F (centres undefined)	226 to 230
CCCCCCCCOCC(CO)(CO)COCCCCCCCC	30 to 32
O=C1CC(NC(=O)c2ccc3nc[nH]c3c2)CCCN1 (centres undefined)	297 to 299
COC(=O)CCc1cc2cc(Cl)ccc2n1S(=O)(=O)c1ccc(C(C)C)cc1	90 to 94
COc1c(NC(=O)CC(C)(C)C)c(C)c(C)c2c1C(c1ccc(C(C)C)cc1)CO2 (centres undefined)	161 to 162
CC12CCC3C(CC(O)C4(O)CC=CCC34C)C1CC=C2Br (centres undefined)	170 to 175
COc1ccc(-c2nc3cc4c(cc3[nH]2)NC(=O)C4C(C)C)cc1 (centres undefined)	326 to 328
COCCN(C)C1CCN(c2ccc(N)cc2C#N)CC1	88
Cc1cc(C2CCN(S(=O)(=O)C3(C(=O)NO)CCOCC3)CC2)ccc1-c1cccc(OC[C@H](O)CO)c1	141 to 145
O=C(O)c1ccccc1OCCCc1cc(-c2ccc(C(F)(F)F)cc2)no1	132 to 133
CC(C)(C)OC(=O)N1CCC(=O)N1c1ccc2ccccc2n1	112
Nc1ccc(C(=O)c2ccccc2)c(Br)c1	157 to 160
CC(C)(C)c1cc(C(=O)Nc2ccc(C(=O)O)cc2)cc(C(C)(C)C)c1O	160 to 162
C#Cc1ccc(C(=C2CC(C)(C)CC(C)(C)C2)c2ccc(O)cc2)cc1	138 to 139
CCOc1ccc2nc(N3CCN(c4nc(N)c5cc(OC)c(OC)cc5n4)CC3)nc-2cc1	> 250
O=C(NC(Cc1ccc(OCc2ccccc2)cc1)C(=O)O)c1cn2cc(-c3ccc(Cl)cc3)cnc2n1 (centres undefined)	252 to 253
Cc1nn(C)c2c(O)nc(C(C)C)nc12	264 to 266
Nc1ccccc1C(=O)Nc1ccc(Br)cc1	139 to 144
CC(C(=O)O)c1ccc(CC2CCCCC2=NO)cc1 (centres undefined)	143 to 150
C1=Cc2cc3ccccc3cc2CS1	84

SMILES	melting point [°C]
O=C(O)c1cc(Br)cc2c1NCCS2=O (centres undefined)	254 to 255
Nc1c(-c2ccc(-c3ccccc3F)cc2)nc2ccc(Cl)cc2c1C(=O)O	247 to 249
C=C(c1ccc(OC)cc1)c1ccc(OC)cc1	137
O=C(OCc1ccc(C(F)(F)F)cc1)N1CCN(CC2Cn3cc([N+](=O)[O-])nc3O2)CC1 (centres undefined)	120 to 122
COCCOCCN1C(=O)C2(COc3cc4c(cc32)OCCO4)c2ccccc21 (centres undefined)	90 to 91
CC12CCCCC1CCC1C2CCC2(C)C(C(O)c3ccccc3)CCC12 (centres undefined)	129 to 130
CC(=O)OC1CCCC(n2c(Br)nc3cc(Cl)c(Cl)cc32)C1OC(C)=O (centres undefined)	71 to 79
CCOC(O)(OCC)C(Cc1ccc2ccccc2c1)NC(=O)OC(C)(C)C (centres undefined)	87
Cc1cc2c(cc1C(F)(F)F)N(Cc1cccc(C(=O)O)c1)CCC[C@@H]2N(Cc1cc(C(F)(F)F)cc(C(F)(F)F)c1)c1nnn(C)n1	83 to 86
Fc1ccc2sc(CCl)nc2c1	99 to 101
Cn1ncc(C(=O)N2CCC2)c1C(=O)Nc1ccn2nc(-c3cccc(F)n3)nc2c1	264
CC(=O)N1CCc2ccc(C(O)CCCN3CCC(c4ccc(Cl)cc4)CC3)cc2CC1 (centres undefined)	113 to 114
CC1C(Cc2ccccc2)C(=O)N(Cc2ccccc2)c2ccccc2N1C(=O)CN1C(=O)c2ccccc2C1=O (centres undefined)	213 to 214
O=S(=O)(c1ccc(Cl)cc1)C(c1cc(F)ccc1F)c1cc(NCc2ccncc2)ncc1Cl (centres undefined)	141 to 142
COc1cc(C(=O)O)ccc1NC(=O)OC(C)(C)C	176 to 178
CC(=O)Nc1ccc2[nH]cc(CC#N)c2c1	172 to 175
O=C(O)c1ccc(C(=O)O)c(O)c1	> 300
COc1ccc2oc(Cn3cnc4c(N)ncnc43)c(-c3ccccc3)c(=O)c2c1	197 to 198
COC(=O)C(=O)c1ccnc(NC=O)n1	143 to 144
O=c1c(-c2ccc(O)cc2)coc2cc(O)ccc12	227 to 228
Cc1[nH]c2ccc(F)cc2c1CCCN1CCN(c2ccccc2)CC1	146 to 147
N#Cc1nn(-c2c(Cl)cc(C(F)(F)F)cc2Cl)c(N)c1C1C=CCCCC1 (centres undefined)	158 to 159
CCOC(=O)N1CCC(NC(=O)c2ccccc2)C12CCCCC2 (centres undefined)	132 to 133
N=C(c1ccc(Cl)cc1)c1cc2ccccc2cn1	151 to 152
